From patent US9487511B2, “Cyclopropanamine compound and use thereof” (Takeda Pharmaceutical Company Limited, priority 2014, dated 2016)
Structures can show the parent of a compound that is named as a salt.

Tests used:
Format in all cases: biochemical
human LSD1(172-833) = human LSD1(172-833) (Homo sapiens (Human), UniProt O60341); assay: Measurement of LSD1 inhibitory activity (time-resolved fluorescence, biotin-histone H3 mono methylated K4 peptide); settings: 60 min preincubation with enzyme at room temperature;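 note: after the compound–enzyme step, substrate reaction 5 min at room temperature in Tris-HCl pH 8.0 with BSA and DTT, halted by 2-PCPA, detected with europium anti-histone H3 antibody plus Streptavidin-XL665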
Description: A test compound dissolved in DMSO was added by to a reaction solution (50 mM Tris-HCl (pH 8.0), 0.1% BSA, 1 mM DTT) containing LSD1 enzyme, and the mixture was reacted at room temperature for 60 min. […] After reaction at room temperature for 5 min, 2-PCPA solution was added to terminate the reaction. A detection solution (800 mM potassium fluoride, 0.1% BSA) containing europium-labeled anti-histone H3 antibody (Wako Pure Chemical Industries, Ltd.) and Streptavidin-XL665 (Cisbio) was further added, and the mixture was left standing for 60 min. […] The LSD1 inhibitory rate (%) of the test compound was calculated by the following formula. inhibitory rate (%)=(1−(test compound count−blank)÷(control−blank))×100
The count of the LSD1 enzyme reaction mixture under compound non-addition conditions is indicated as control, and the count under compound non-addition and LSD1 enzyme non-addition conditions is indicated as blank. A concentration necessary for achieving 50% inhibitory rate was taken as ICH value.

MAO-A enzyme = MAO-A enzyme (Homo sapiens (Human), UniProt P21397); assay: Measurement of MAO-A inhibitory activity (MAO-Glo Assay)
Sequence of MAO-A enzyme (P21397 whole entry): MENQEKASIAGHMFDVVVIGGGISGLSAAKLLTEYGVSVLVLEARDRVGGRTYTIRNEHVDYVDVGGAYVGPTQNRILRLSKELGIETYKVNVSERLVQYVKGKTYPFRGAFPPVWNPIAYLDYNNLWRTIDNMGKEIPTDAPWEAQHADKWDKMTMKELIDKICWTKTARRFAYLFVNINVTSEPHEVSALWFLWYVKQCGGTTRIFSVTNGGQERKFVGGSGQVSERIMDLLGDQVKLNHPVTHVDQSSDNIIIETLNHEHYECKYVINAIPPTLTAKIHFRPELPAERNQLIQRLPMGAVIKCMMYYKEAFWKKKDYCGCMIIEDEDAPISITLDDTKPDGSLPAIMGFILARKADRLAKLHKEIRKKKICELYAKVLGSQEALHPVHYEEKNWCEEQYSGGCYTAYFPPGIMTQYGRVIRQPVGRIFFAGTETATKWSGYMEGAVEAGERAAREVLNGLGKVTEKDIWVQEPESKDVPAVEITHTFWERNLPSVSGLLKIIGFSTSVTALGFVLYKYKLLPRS
Description: The MAO-A inhibitory activity evaluation described below followed the protocol of MAO-Glo (registered trademark) Assay of Promega KK.
A test compound dissolved in DMSO was added to a reaction solution (100 mM HEPES (pH 7.5), 5% glycerol) containing MAO-A enzyme (Sigma-Aldrich Co. LLC.), and the mixture was reacted at room temperature for 15 min. MAO substrate (Promega KK) was added to start the reaction. After reaction at room temperature for 60 min, Luciferine detection reagent (Promega KK) was added to terminate the reaction. After reaction at room temperature for 20 min with stirring, the luminescence was measured by Envision (PerkinElmer). The MAO-A inhibitory rate (%) of the test compound was calculated by the following formula. inhibitory rate (%)=(1−(test compound count−blank)÷(control−blank))×100
The count of the MAO-A enzyme reaction mixture under compound non-addition conditions is indicated as control, and the count under compound non-addition and MAO-A enzyme non-addition conditions is indicated as blank.

MAO-B enzyme = MAO-B enzyme (Homo sapiens (Human), UniProt P27338); assay: Measurement of MAO-B inhibitory activity (MAO-Glo Assay)
Sequence of MAO-B enzyme (P27338 whole entry): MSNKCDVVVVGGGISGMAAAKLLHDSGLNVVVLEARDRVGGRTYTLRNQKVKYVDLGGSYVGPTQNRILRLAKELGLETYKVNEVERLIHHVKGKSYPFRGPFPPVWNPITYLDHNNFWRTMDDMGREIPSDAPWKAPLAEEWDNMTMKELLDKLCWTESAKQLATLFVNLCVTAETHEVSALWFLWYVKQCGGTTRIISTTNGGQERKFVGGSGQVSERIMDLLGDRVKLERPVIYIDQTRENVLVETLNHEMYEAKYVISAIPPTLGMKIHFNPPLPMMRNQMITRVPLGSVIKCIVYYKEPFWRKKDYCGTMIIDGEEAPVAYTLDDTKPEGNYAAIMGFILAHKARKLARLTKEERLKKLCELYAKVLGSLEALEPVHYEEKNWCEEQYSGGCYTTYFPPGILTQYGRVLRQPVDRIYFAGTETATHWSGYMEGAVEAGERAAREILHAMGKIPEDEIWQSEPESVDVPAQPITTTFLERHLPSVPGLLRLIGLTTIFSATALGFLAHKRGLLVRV
Description: The MAO-B inhibitory activity evaluation described below followed the protocol of MAO-Glo (registered trademark) Assay of Promega KK.
A test compound dissolved in DMSO was added to a reaction solution (100 mM HEPES (pH 7.5), 5% glycerol, 10% DMSO) containing MAO-B enzyme (Sigma-Aldrich Co. LLC.), and the mixture was reacted at room temperature for 15 min. MAO substrate (Promega KK) was added to start the reaction. After reaction at room temperature for 60 min, Luciferine detection reagent (Promega KK) (50 μL) was added to terminate the reaction. After reaction at room temperature for 20 min with stirring, the luminescence was measured by Envision (PerkinElmer). The MAO-B inhibitory rate (%) of the test compound was calculated by the following formula. inhibitory rate (%)=(1−(test compound count−blank)÷(control−blank))×100
The count of the MAO-B enzyme reaction mixture under compound non-addition conditions is indicated as control, and the count under compound non-addition and MAO-B enzyme non-addition conditions is indicated as blank.

Compound	IC50 (human LSD1(172-833)) [µM]	IC50 (MAO-A enzyme) [µM]	IC50 (MAO-B enzyme) [µM]
O=C(NC1CCC(F)(F)CC1)c1csc([C@@H]2C[C@H]2NC2CCOCC2)c1 [Example 44, N-(4,4-difluorocyclohexyl)-5-((1R,2R)-2-(tetrahydro-2H-pyran-4-ylamino)cyclopropyl)thiophene-3-carboxamide hydrochloride]	< 0.1	> 100	100
N[C@H]1CC[C@H](N[C@@H]2C[C@H]2c2cc(C(=O)NC3CCC(F)(F)CC3)cs2)CC1 [Example 46, 5-((1R,2R)-2-(trans-(4-aminocyclohexyl)amino)cyclopropyl)-N-(4,4-difluorocyclohexyl)thiophene-3-carboxamide dihydrochloride]	< 0.1	> 100	> 100
O=C(NC1CCOCC1)c1csc([C@@H]2C[C@H]2NC2CCC(F)(F)CC2)c1 [Example 47, 5-((1R,2R)-2-((4,4-difluorocyclohexyl)amino)cyclopropyl)-N-(tetrahydro-2H-pyran-4-yl)thiophene-3-carboxamide hydrochloride]	< 0.1	> 100	> 100
Cc1nnc(NC(=O)c2csc([C@@H]3C[C@H]3NC3CCN(C4CC4)CC3)c2)s1 [Example 48, 5-((1R,2R)-2-((1-cyclopropylpiperidin-4-yl)amino)cyclopropyl)-N-(5-methyl-1,3,4-thiadiazol-2-yl)thiophene-3-carboxamide dihydrochloride]	< 0.1	31	> 100
Cc1nnc(NC(=O)c2csc([C@@H]3C[C@H]3NC3CCOCC3)c2)s1 [Example 49, N-(5-methyl-1,3,4-thiadiazol-2-yl)-5-((1R,2R)-2-(tetrahydro-2H-pyran-4-ylamino)cyclopropyl)thiophene-3-carboxamide hydrochloride]	< 0.1	> 100	> 100
Cc1ncc(NC(=O)c2csc([C@@H]3C[C@H]3NC3CCOCC3)c2)s1 [Example 50, N-(2-methyl-1,3-thiazol-5-yl)-5-((1R,2R)-2-(tetrahydro-2H-pyran-4-ylamino)cyclopropyl)thiophene-3-carboxamide hydrochloride]	< 0.1	> 100	> 100
O=C(NC1CCC(F)(F)CC1)c1csc([C@@H]2C[C@H]2NCC2CCOCC2)c1 [Example 51, N-(4,4-difluorocyclohexyl)-5-((1R,2R)-2-((tetrahydro-2H-pyran-4-ylmethyl)amino)cyclopropyl)thiophene-3-carboxamide hydrochloride]	< 0.1	> 100	> 100
O=C(NC1CCN(CC(F)(F)F)CC1)c1csc([C@@H]2C[C@H]2NCC2CCOCC2)c1 [Example 52, 5-((1R,2R)-2-((tetrahydro-2H-pyran-4-ylmethyl)amino)cyclopropyl)-N-(1-(2,2,2-trifluoroethyl)piperidin-4-yl)thiophene-3-carboxamide hydrochloride]	< 0.1	> 100	> 100
Cc1ncc(NC(=O)c2csc([C@@H]3C[C@H]3NCC3CCOCC3)c2)s1 [Example 53, N-(2-methyl-1,3-thiazol-5-yl)-5-((1R,2R)-2-((tetrahydro-2H-pyran-4-ylmethyl)amino)cyclopropyl)thiophene-3-carboxamide dihydrochloride]	< 0.1	61	96
Cc1nn(C)cc1NC(=O)c1csc([C@@H]2C[C@H]2NCC2CCOCC2)c1 [Example 54, N-(1,3-dimethyl-1H-pyrazol-4-yl)-5-((1R,2R)-2-((tetrahydro-2H-pyran-4-ylmethyl)amino)cyclopropyl)thiophene-3-carboxamide dihydrochloride]	< 0.1	> 100	> 100
Cc1c(NC(=O)c2csc([C@@H]3C[C@H]3NCC3CCOCC3)c2)cnn1C [Example 55, N-(1,5-dimethyl-1H-pyrazol-4-yl)-5-((1R,2R)-2-((tetrahydro-2H-pyran-4-ylmethyl)amino)cyclopropyl)thiophene-3-carboxamide dihydrochloride]	< 0.1	> 100	> 100
O=C(NC1CC1)c1csc([C@@H]2C[C@H]2NCC2CCOCC2)c1 [Example 56, N-cyclopropyl-5-((1R,2R)-2-((tetrahydro-2H-pyran-4-ylmethyl)amino)cyclopropyl)thiophene-3-carboxamide hydrochloride]	< 0.1	> 100	> 100
Cc1nnc(NC(=O)c2csc([C@@H]3C[C@H]3NCC3CCN(CCC(=O)O)CC3)c2)s1 [Example 60, 3-(4-((((1R,2R)-2-(4-((5-methyl-1,3,4-thiadiazol-2-yl)carbamoyl)-2-thienyl)cyclopropyl)amino)methyl)piperidin-1-yl)propanoic acid trihydrochloride]	< 0.1	> 100	> 100
Cc1nnc(NC(=O)c2cc([C@H]3C[C@@H]3NCC3CCOCC3)cs2)s1 [Example 74, N-(5-methyl-1,3,4-thiadiazol-2-yl)-4-((1R,2S)-2-((tetrahydro-2H-pyran-4-ylmethyl)amino)cyclopropyl)thiophene-2-carboxamide hydrochloride]	< 0.1	> 100	> 100
O=C(NC1CCC(F)(F)CC1)c1csc([C@@H]2C[C@H]2NC2CCN(C3CC3)CC2)c1 [Example 80, 5-((1R,2R)-2-((1-cyclopropylpiperidin-4-yl)amino)cyclopropyl)-N-(4,4-difluorocyclohexyl)thiophene-3-carboxamide hydrochloride]	< 0.1	> 100	> 100
Cc1cc(NC(=O)c2csc([C@@H]3C[C@H]3NCC3CCOCC3)c2)no1 [Example 81, N-(5-methyl-1,2-oxazol-3-yl)-5-((1R,2R)-2-((tetrahydro-2H-pyran-4-ylmethyl)amino)cyclopropyl)thiophene-3-carboxamide hydrochloride]	< 0.1	36	> 100
CCn1cc(NC(=O)c2csc([C@@H]3C[C@H]3NCC3CCOCC3)c2)cn1 [Example 86, N-(1-ethyl-1H-pyrazol-4-yl)-5-((1R,2R)-2-((tetrahydro-2H-pyran-4-ylmethyl)amino)cyclopropyl)thiophene-3-carboxamide dihydrochloride]	< 0.1	87	> 100
CC(=O)N1CCC(N[C@@H]2C[C@H]2c2cc(C(=O)NC3CCC(F)(F)CC3)cs2)CC1 [Example 91, 5-((1R,2R)-2-((1-acetylpiperidin-4-yl)amino)cyclopropyl)-N-(4,4-difluorocyclohexyl)thiophene-3-carboxamide hydrochloride]	< 0.1	> 100	> 100
O=C(NC1CCC(F)(F)CC1)c1csc([C@@H]2C[C@H]2NC2CCN(C(=O)C3CC3)CC2)c1 [Example 92, 5-((1R,2R)-2-((1-(cyclopropylcarbonyl)piperidin-4-yl)amino)cyclopropyl)-N-(4,4-difluorocyclohexyl)thiophene-3-carboxamide hydrochloride]	< 0.1	> 100	> 100
